From ChEMBL document CHEMBL4152281, “Synthesis, characterization and biological evaluation of tertiary sulfonamide derivatives of pyridyl-indole based heteroaryl chalcone as potential carbonic anhydrase IX inhibitors and anticancer agents” (Eur J Med Chem, 2018)

Key:
HEK293 = assay: Antiproliferative activity against HEK293 cells after 48 hrs by MTT assay; type: cell-based; details: Homo sapiens, HEK293, 48 h
HepG2 = assay: Antiproliferative activity against human HepG2 cells after 48 hrs by MTT assay; type: functional, cell-based; details: HepG2, 48 h
MCF7 [1] = assay: Antiproliferative activity against human MCF7 cells after 48 hrs by MTT assay; type: functional, cell-based
Carbonic anhydrase 9 = Carbonic anhydrase 9 (Homo sapiens, UniProt Q16790); assay: Inhibition of human carbonic anhydrase 9 expressed in Escherichia coli BL21 D3 strain using p-nitrophenyl acetate as substrate by UV/visible spectrophotometry
MCF7 [2] = assay: Induction of apoptosis in human MCF7 cells assessed as early apoptotic cells at IC50 after 24 to 48 hrs by Annexin V-FITC/7-AAD dual staining based flow cytometry (reference value: 2.74%); type: functional
MCF7 [3] = assay: Induction of apoptosis in human MCF7 cells assessed as late apoptotic cells at IC50 after 24 to 48 hrs by Annexin V-FITC/7-AAD dual staining based flow cytometry (reference value: 1.14%); type: functional
MCF7 [4] = assay: Induction of apoptosis in human MCF7 cells assessed as necrotic cells at IC50 after 24 to 48 hrs by Annexin V-FITC/7-AAD dual staining based flow cytometry (reference value: 0.20%); type: functional
MCF7 [5] = assay: Induction of apoptosis in human MCF7 cells assessed as viable cells at IC50 after 24 to 48 hrs by Annexin V-FITC/7-AAD dual staining based flow cytometry (reference value: 95.8%); type: functional
Carbonic anhydrase 2 = Carbonic anhydrase 2 (Homo sapiens, UniProt P00918); assay: Inhibition of human carbonic anhydrase 2 expressed in Escherichia coli BL21 D3 strain using p-nitrophenyl acetate as substrate by UV/visible spectrophotometry
[6] = Homo sapiens, MCF7, 48 h, read-out: IC50

Structure (SMILES) | IC50 (HEK293) | IC50 (HepG2) | IC50 (MCF7 [1]; [6]) | IC50 (Carbonic anhydrase 9) | Activity (MCF7 [2]) | Activity (MCF7 [3]) | Activity (MCF7 [4]) | Activity (MCF7 [5]) | IC50 (MCF7 [1]; mcf7) | IC50 (Carbonic anhydrase 2)
O=C(/C=C/c1c[nH]c2ccccc12)c1ccncc1 | > 150 µM | 49.3 µM | 45.3 µM | – | – | – | – | – | – | –
Cc1ccc(S(=O)(=O)n2cc(/C=C/C(=O)c3ccncc3)c3ccccc32)cc1 | > 150 µM | 44.8 µM | 48.9 µM | 29.9 µM | – | – | – | – | – | –
O=C(/C=C/c1cn(S(=O)(=O)c2ccc(Cl)cc2Cl)c2ccccc12)c1ccncc1 | > 150 µM | 14.8 µM | 12.2 µM | 0.13 µM | 78.8% | 10% | 0.53% | 10.6% | Dose-dependent effect | –
CCCS(=O)(=O)n1cc(/C=C/C(=O)c2ccncc2)c2ccccc21 | > 150 µM | 46.2 µM | 52.4 µM | 44.5 µM | – | – | – | – | – | > 100 µM
O=C(/C=C/c1cn(S(=O)(=O)c2cccc([N+](=O)[O-])c2)c2ccccc12)c1ccncc1 | > 150 µM | 42.6 µM | 36.3 µM | 37.6 µM | – | – | – | – | – | –
O=C(/C=C/c1cn(S(=O)(=O)c2ccccc2[N+](=O)[O-])c2ccccc12)c1ccncc1 | > 150 µM | 31.7 µM | 36.9 µM | 57.3 µM | – | – | – | – | – | –
O=C(/C=C/c1cn(S(=O)(=O)c2cccc3ccccc23)c2ccccc12)c1ccncc1 | > 150 µM | 62.9 µM | 58 µM | 44.1 µM | – | – | – | – | – | –
O=C(/C=C/c1cn(S(=O)(=O)c2ccc(Cl)cc2)c2ccccc12)c1ccncc1 | > 150 µM | 35.1 µM | 37.5 µM | 14.4 µM | – | – | – | – | – | –
O=C(/C=C/c1cn(S(=O)(=O)c2ccc([N+](=O)[O-])cc2)c2ccccc12)c1ccncc1 | – | – | – | 0.15 µM | – | – | – | – | – | –
CC(C)(C)c1ccc(S(=O)(=O)n2cc(/C=C/C(=O)c3ccncc3)c3ccccc32)cc1 | > 150 µM | 27 µM | 24 µM | 0.15 µM | 3.24% | 18.9% | 19.6% | 58.26% | Dose-dependent effect | –
COc1ccc(S(=O)(=O)n2cc(/C=C/C(=O)c3ccncc3)c3ccccc32)cc1 | > 150 µM | 26 µM | 65.8 µM | 26.1 µM | – | – | – | – | – | –
COc1cccc2c1C(=O)c1c(O)c3c(c(O)c1C2=O)C[C@@](O)(C(=O)CO)C[C@@H]3O[C@H]1C[C@H](N)[C@H](O)[C@H](C)O1 [DOXORUBICIN] | 143 µM | 18.7 µM | – | – | – | – | – | – | – | –
